Where a name gives a salt, the structure may show the parent alone.
Tests used:
Format in all cases: physicochemical
[1] = Physical stability on storage (precipitation / remaining in solution); conditions: for Comment: physical stability on storage: 10% ractopamine; for physical stability on storage: 5° C. storage
[2] = Solubility determination of ractopamine HCl in liquid agents (visual, 1-dram vials)
Experimental: Solubility determinations are performed in 1-dram vials. Add ractopamine HCl to a vial containing a liquid agent to give a final w/w ratio of 10% ractopamine HCl to liquid agent. Mix the solution vigorously on a vortex mixer for 2 to 6 minutes. After the mixing period, visually, assess whether the ractopamine dissolves in the liquid agent or whether insoluble material (cloudy solution or two distinct phases) remains in the vial. If the solubility is less than 10%, add additional liquid agent to dilute the ractopamine HCl to a 5-8% range. Repeat the mixing procedure and assess whether the ractopamine is soluble in the liquid agent or whether it remains insoluble at the lower concentration. Apply heat (from room temperature up to 60° C.) as needed to aid solubilization. Allow heated samples to cool to room temperature to assess solubility by visual observation for precipitant or cloudiness.

[3] = Chemical stability on storage: related substances by chromatogram comparison
[4] = Solubility of ractopamine (water, PG, PEG vehicle systems)

With `CC(CCc1ccc(O)cc1)NCC(O)c1ccc(O)cc1` (stereo not drawn) [ractopamine HCl] the “Comment: physical stability on storage” value ([1]; Polyoxyethylene 20 Sorbitan Monolaurate to water below 50/50, prolonged storage at 5° C.) was “below 50/50 precipitate after”, the “Comment: physical stability on storage” value ([1]; Polyoxyethylene-20-Sorbitan Monooleate to water below 50/50, prolonged storage at 5° C.) was “below 50/50 precipitate after” and the “Comment: physical stability on storage” value ([1]; Polyoxyl 35 Castor Oil to water at 50/50, short term (3 months) storage at 5° C.) was “somewhat viscous and precipitate”. The “Solubility @ RT” value ([2]; 1,3 Dioxolane) was under 5%, the “Solubility @ RT” value ([2]; 1-Butanol) was under 10% and the “Solubility @ RT” value ([2]; 1-Methyl-2-Pyrrolidinone (Pharmasolve)) was under 5%. For the same compound, the “Solubility @ RT” value ([2]; 2-Pyrrolidone (2-Pyrol)) was “≦5%”, the “Solubility @ RT” value ([2]; 4-Methyl-1-3Dioxolane) was under 5% and the “Solubility @ RT” value ([2]; Acetaldehyde Phenethyl Propyl Acetal (Acetal R)) was under 10%. For the same compound, the “Solubility @ RT” value ([2]; Acetic Acid Glacial (50% solution)) was “≧10%”, the “Solubility @ RT” value ([2]; Acetone) was under 10% and the “Solubility @ RT” value ([2]; Acetophenone) was under 10%. For the same compound, the “Solubility @ RT” value ([2]; Agrimax 3 (2-pyrrolidinone, 1-Octyl 2-Pyrrolidinone, 1-Ethenylhexadecyl-, Homopolymer Sulfuric Acid Monododecyl Ester Sodium Salt)) was under 5%, the “Solubility @ RT” value ([2]; AgsolEx 8) was under 5% and the “Solubility @ RT” value ([2]; Amyl Acetate) was under 5%. The “Solubility @ RT” value ([2]; Aromatic 100) was under 5%, the “Solubility @ RT” value ([2]; Aromatic 200 (SC Solvent 200)) was under 5% and the “Solubility @ RT” value ([2]; Benzoic Acid (0.3% solution)) was under 10%. For the same compound, the “Solubility @ RT” value ([2]; Benzyl Alcohol) was “≧5%”, the “Solubility @ RT” value ([2]; Block Copolymer Pluronic L31) was “≦10%” and the “Solubility @ RT” value ([2]; Block Copolymer Pluronic L61, 50/50 water) was “≧10%”. For the same compound, the “Solubility @ RT” value ([2]; Block Copolymer Pluronic L61, Neat (Viscous)) was “≦10%”, the “Solubility @ RT” value ([2]; Caprylic/Capric Triglycerides, BP, FP (Labrafac CC)) was under 5% and the “Solubility @ RT” value ([2]; Caprylic/capric triglyceride (Migylol 810)) was under 8%. For the same compound, the “Solubility @ RT” value ([2]; Centrapour Clear Fry Oil) was under 5%, the “Solubility @ RT” value ([2]; Citric Acid (50% solution)) was under 5% and the “Solubility @ RT” value ([2]; Corn Oil (Mazzola)) was under 8%. For the same compound, the “Solubility @ RT” value ([2]; Cyclohexanone) was under 10%, the “Solubility @ RT” value ([2]; D-Gluconic Acid) was under 10% and the “Solubility @ RT” value ([2]; D-Glucuronic Acid (20% solution)) was under 5%. The “Solubility @ RT” value ([2]; Dichloromethane) was under 10%, the “Solubility @ RT” value ([2]; Diethylene Glycol) was “≧10%” and the “Solubility @ RT” value ([2]; Diethylenetriamine (DETA)) was “≧10%”. The “Solubility @ RT” value ([2]; Dimethyl Isosorbide) was under 8%, the “Solubility @ RT” value ([2]; Dipropylene glycol n-butyl ether) was under 10% and the “Solubility @ RT” value ([2]; Ethanolamine) was “≧10%”. For the same compound, the “Solubility @ RT” value ([2]; Ethyl Acetate) was under 5%, the “Solubility @ RT” value ([2]; Ethyl Alcohol) was under 10% and the “Solubility @ RT” value ([2]; Ethyl Lactate) was under 5%. For the same compound, the “Solubility @ RT” value ([2]; Ethylene Glycol) was “≧10%”, the “Solubility @ RT” value ([2]; Ethylenediamine) was “≧20%” and the “Solubility @ RT” value ([2]; Forward DC) was under 5%. For the same compound, the “Solubility @ RT” value ([2]; Fumaric Acid) was under 5%, the “Solubility @ RT” value ([2]; Gamma Butylactone) was under 5% and the “Solubility @ RT” value ([2]; Glutamic Acid (20% solution)) was under 5%. The “Solubility @ RT” value ([2]; Glycerol Formal) was “≦5%”, the “Solubility @ RT” value ([2]; Glyceryl and polyethylene glycol esters (Labrasol)) was under 5% and the “Solubility @ RT” value ([2]; Glycol Ether PM) was under 5%. The “Solubility @ RT” value ([2]; Hexane) was under 5%, the “Solubility @ RT” value ([2]; Hydroxypropyl β-Cyclodextrin (Trappsol)) was under 10% and the “Solubility @ RT” value ([2]; Isophorone) was under 10%. The “Solubility @ RT” value ([2]; Isopropyl Myristrate (Emerest 2314)) was under 8%, the “Solubility @ RT” value ([2]; L-Malic Acid (20% solution)) was under 5% and the “Solubility @ RT” value ([2]; L-Tartaric Acid 20% solution) was under 5%. For the same compound, the “Solubility @ RT” value ([2]; Lactic Acid (85% solution)) was “≦10%”, the “Solubility @ RT” value ([2]; Maleic Acid (20% Solution)) was “≦10%” and the “Solubility @ RT” value ([2]; Malonic Acid) was “≧5%”. For the same compound, the “Solubility @ RT” value ([2]; Medium chain triglyceride (Migylol 812)) was under 8%, the “Solubility @ RT” value ([2]; Methanol) was “≧10%” and the “Solubility @ RT” value ([2]; Methyl Caprylate-Caprate (Emery 2209)) was under 8%. For the same compound, the “Solubility @ RT” value ([2]; Methyl Oleate (Emery 2301)) was under 8%, the “Solubility @ RT” value ([2]; Mineral Oil, QA246U) was under 5% and the “Solubility @ RT” value ([2]; Mono-diglyceride of caprylic/capric fatty acids (Capmul MCM)) was under 8%. The “Solubility @ RT” value ([2]; Monomethylated Polyethylene Glycol MPEG 350, 50/50 water) was “≧10%”, the “Solubility @ RT” value ([2]; Monomethylated Polyethylene Glycol MPEG 350, Neat) was “≦10%” and the “Solubility @ RT” value ([2]; Monomethylated Polyethylene Glycol MPEG 550, 50/50 water) was “≧10%”. For the same compound, the “Solubility @ RT” value ([2]; Monomethylated Polyethylene Glycol MPEG 550, Neat) was “≦10%”, the “Solubility @ RT” value ([2]; N,N, Dimethylacetamide) was under 5% and the “Solubility @ RT” value ([2]; Nonylphenol Ethoxylate, POE-10 (Makon 10)) was under 5%. The “Solubility @ RT” value ([2]; Oleic Acid (Priolene 6933)) was under 5%, the “Solubility @ RT” value ([2]; Oleoyl Macrogolglycerides EP (Labrafil M 1944 CS)) was under 5% and the solubility ([2]; PCO to water 50:50 w/w) was “greater than 10%”. For the same compound, the solubility ([2]; PSO to water 50:50 w/w) was “greater than 10%”, the “Solubility @ RT” value ([2]; Petroleum Ether) was under 5% and the “Solubility @ RT” value ([2]; Petroleum distillates (naphtha), Panasol AN-2K) was under 5%. For the same compound, the “Solubility @ RT” value ([2]; Phosphoric Acid (85% Solution)) was under 5%, the “Solubility @ RT” value ([2]; Polyethylene Glycol Dimethyl Ether (DMPEG-350)) was under 5% and the “Solubility @ RT” value ([2]; Polyethylene Glycol PEG 200, 50/50 water) was “≧10%”. For the same compound, the “Solubility @ RT” value ([2]; Polyethylene Glycol PEG 200, Neat) was “≦10%”, the “Solubility @ RT” value ([2]; Polyethylene Glycol PEG 300, 50/50 water) was “≧10%” and the “Solubility @ RT” value ([2]; Polyethylene Glycol PEG 300, Neat) was “≦10%”. For the same compound, the “Solubility @ RT” value ([2]; Polyethylene Glycol PEG 400, Neat (Viscous)) was “≦10%”, the “Solubility @ RT” value ([2]; Polyglycol P-2000) was under 5% and the “Solubility @ RT” value ([2]; Polyoxyethylene-20-Sorbitan Monolaurate (Tween 20), 50/50 water) was “≧10%”. For the same compound, the “Solubility @ RT” value ([2]; Polyoxyethylene-20-Sorbitan Monolaurate (Tween 20), Neat (Viscous)) was “≦10%”, the “Solubility @ RT” value ([2]; Polyoxyethylene-20-Sorbitan Monooleate (Tween 80), 50/50 water) was “≧10%” and the “Solubility @ RT” value ([2]; Polyoxyethylene-20-Sorbitan Monooleate (Tween 80), Neat (Viscous)) was “≦10%”. For the same compound, the “Solubility @ RT” value ([2]; Polyoxyl 35 Castor Oil (Cremophor EL), 50/50 water) was “≧10%”, the “Solubility @ RT” value ([2]; Polyoxyl 35 Castor Oil (Cremophor EL), Neat (Viscous)) was “≦10%” and the “Solubility @ RT” value ([2]; Propionic Acid (20% solution)) was “≧10%”. The “Solubility @ RT” value ([2]; Propylene Carbonate) was under 5%, the “Solubility @ RT” value ([2]; Propylene Glycol Laurate (Lauroglycol FCC)) was under 5% and the “Solubility @ RT” value ([2]; Propylene glycol diester of caprylic/capric acid (Migylol 840)) was under 8%. For the same compound, the “Solubility @ RT” value ([2]; Soybean Oil Methyl Ester (Soy Gold 2000)) was under 8%, the “Solubility @ RT” value ([2]; Succinic Acid (5% Solution)) was under 5% and the “Solubility @ RT” value ([2]; Sunflower Oil (Wesson)) was under 8%. The “Solubility @ RT” value ([2]; Tetrahydrfurfuryl Alcohol (THFA)) was “≦10%”, the “Solubility @ RT” value ([2]; Tetrahydrofuran (THF)) was under 10% and the “Solubility @ RT” value ([2]; Toulene) was under 10%. The “Solubility @ RT” value ([2]; Triacetin) was under 5%, the “Solubility @ RT” value ([2]; Trichloroethylene) was under 10% and the “Solubility @ RT” value ([2]; Triglyceride of caprylic/capric and succinic acid (Migylol 829)) was under 8%. For the same compound, the “Solubility @ RT” value ([2]; β-Cyclodextrin Sulfbutyl Ether 7 Sodium Salt 20% Solution (Captisol)) was under 10%, the “Comment: stability” value ([3]; Acetic Acid Glacial (50% solution), buffered 10% formulation, generation of new related subs in stability storage) was “Stability discontinued” and the “Comment: stability” value ([3]; Lactic Acid (85% solution), 10% formulation by heating and buffering pH, generation of new related subs in stability storage) was “Stability discontinued”. The “Comment: new related sub peaks in stability studies” value ([3]; MPEG solvents (MPEG 350, 550)) was “number of new related sub”, the “Comment: reaction with solvent” value ([3]; Methanol, forms methoxy ractopamine related substance) was “Methanol reacts with” and the “Comment: new related sub peaks in stability studies” value ([3]; PEG solvents (PEG 200, 300)) was “number of new related sub”. The “Comment: new related substance peaks in stability studies” value ([3]; Pluronic L61 to water at 50/50, 10% ractopamine) was “a number of new related” and the “Comment: stability” value ([3]; Propionic Acid (20% solution), generated a number of large related sub peaks) was “Stability discontinued -”.

With `CC(CCc1ccc(O)cc1)NCC(O)c1ccc(O)cc1` (stereo not drawn) [ractopamine] the solubility ([4]; 100% propylene glycol (PG) or aqueous vehicle system containing PG) was over 25 % w/w, the “solubility (capable of dissolving)” value ([4]; vehicle 50% PG and 50% water, 25° C.) was “at least 10%” and the “concentration achievable in solution” value ([4]; vehicle system containing PEG 200, PEG 300, or both) was over 20%. The “physical stability on storage” value ([1]; 10% ractopamine formulations, PSO to water below 50/50 w/w) was “precipitate out”, the “physical stability on storage” value ([1]; Ten percent ractopamine formulations, PCO to water below 50/50 w/w) was “precipitate out” and the solubility ([2]; PSL to water 50:50 w/w) was “greater than 10%”. The reaction with solvent ([3]; PEG 200 / PEG 300 vehicle, not reversible under normal storage conditions) was “form covalently bonded related substances”, the new related substances ([3]; aqueous PSL vehicle, storage up to 24 months at 25° C. and 12 months at 40° C.) was under 0.2% and the new related substances ([3]; aqueous PSO vehicle, storage up to 24 months at 25° C.) was under 0.2%. The “formation of new related substances during storage” value ([3]; propylene glycol solutions, normal room temperature (~25° C.)) was “new related substances form slowly”.
